US20230373972A1, “PIPERAZINE DERIVATIVE, PREPARATION METHOD THEREFOR AND USE THEREOF” (Zhejiang Hisun Pharmaceutical Co., Ltd., priority 2020, published 2023)
Like-named read-outs stand apart in the source and are kept apart here.

Legend:
[1] = Metabolic stability in mouse liver microsomes; type: in vitro ADME
Procedure: (§1) The experiment was intended to study the metabolic stability of the compounds of the present invention in dog and mouse liver microsomes.
(§2) A test compound and the compound of Comparative Example 1 were incubated with dog and mouse liver microsomes (the Corning Company. USA) respectively, and a coenzyme NADPH was added to start the reaction. 135 μL of acetonitrile containing an internal standard (IS) was added to wells of a corresponding plate after 0, 5, 15, 30 and 45 minutes respectively to terminate the reaction. After protein precipitation, the solution was centrifuged at 5.594 rpm for 15 minutes, and a supernatant was taken. The supernatant was diluted with water by 1:1 (volume ratio) and then analyzed by a LC-MS/MS method. Ketanserin was used as an internal reference compound, and two copies of Ketanserin were incubated in parallel.
(§3) A peak area ratio of analyte/internal standard (Aanalyte/A1s) was obtained by an instrument, and a remaining percentage (% Control) was calculated by ratios of Aanalyte/A1s in a sample at a non-zero time point and a sample at a zero time point. Ln (% Control) was plotted and fitted linearly with the incubation time. A scavenging constant (k, min^−1) and a scavenging half-life (T1/2, min) of the tested compound were calculated by the following equation.

human plasma = assay: In-vitro anticoagulation on human plasma (APTT kit, coagulation time); conditions: concentration of the compound when the coagulation time (APTT) was prolonged twice
[2] = Pharmacokinetics in ICR mouse; type: in vivo; conditions: male, plasma; for AUC(0-t): read-out: Curve area AUC0-t; for half-life: read-out: Half-life period T1/2(h) (converted)
Procedure: Taking an ICR mouse as a tested animal, the ICR mouse was administrated with the compound in Example 96 of the present invention by intravenous injection and intragastric administration, and drug concentrations in plasma at different times were determined by a LC/MS/MS method to study pharmacokinetic characteristics of the compound of the present invention in the mouse.
ICR mice, male, 29.2 g to 34.9 g, purchased from Beijing Vital River Laboratory Animal Technology Co., Ltd.
Preparation of drug administrated by intravenous injection: a proper amount of compound to be tested was added to a proper amount of DMAC: (30% Soltol HS 15): Saline=10%: 10%: 80% (v/v/v), and shaken in a vortex manner, so as to prepare a final solution with a concentration of 0.2 mg/mL.
Preparation of drug administrated by intragastric administration: a proper amount of compound to be tested was added to a proper amount of DMA: (30% Soltol HS 15): Saline=10%: 10%: 80% (v/v/v), and shaken in a vortex manner, so as to prepare a final solution with a concentration of 0.5 mg/mL.
ICR mice were divided into an intravenous injection group and an intragastric administration group (9 rats in single group).
Intravenous injection group: the drug was administrated by intravenous injection (according to a dosage of 1 mg/kg and a volume of 5 mL/kg) without fasting.
Intragastric administration group: the drug was administrated by intragastric administration (according to a dosage of 5 mg/kg and a volume of 10 mL/kg) after fasting overnight, and food was taken 4 hours after administration.
Intravenous injection group: about 80 μL of blood was collected into an EDTA-K2 anticoagulant tube through an orbit 0.083 hour, 0.25 hour, 0.5 hour, 1 hour, 2 hours, 4 hours, 8 hours, 12 hours and 24 hours after administration.
Intragastric administration group: about 80 μL of blood was collected through an orbit 0.25 hour, 0.5 hour, 1 hour, 2 hours, 4 hours, 8 hours, 12 hours and 24 hours before and after administration.
The whole blood sample was placed in an EDTA-K2 anticoagulant tube. Plasma was centrifugally separated (centrifugation conditions: 1,500 g, 10 minutes). The collected upper plasma was stored al −40° C. to −20° C. before analysis.
Contents of the compound to be tested in mouse plasma after intravenous and intragastric administration were determined by LC-MS/MS.

[3] = Metabolic stability in dog liver microsomes; type: in vitro ADME
Procedure: as §1, §2, §3

[4] = iv, injection administration 1 mg/kg
[5] = po, intragastric administration 5 mg/kg

Compound: COCC[C@@H](C(=O)Nc1ccc2nn(C)cc2c1)N1CC(=O)N(c2cc(Cl)ccc2-n2cc(Cl)nn2)CC1=O [Example 96, (S)-2-(4-(5-chloro-2-(4-chloro-1H-1,2,3-triazol-1-yl)phenyl)-2,5-dioxopiperazin-1-yl)-4-methoxy-N-(2-methyl-2H-indazol-5-yl)butanamide]
- half-life at 1 μM ([1]; mouse liver microsomes 0.5 mg/mL, 1 μM compound, NADPH, read-out: Half-life period (T1/2 min) Mouse): 5.53 h
- Half-life period and stability compared with Comparative Example 1 ([1]; mouse liver microsomes, in words): longer half-life period and a higher stability
- CT2 (human plasma): 5.3 µM
- AUC(0-t) [2, 4]: 1240 ng·h/mL
- half-life [2, 4]: 0.664 h
- bioavailability ([2]; po, intragastric 5 mg/kg vs injection 1 mg/kg, read-out: Bioavailability F(%)): 69.8%
- Cmax ([2]; po, intragastric administration 5 mg/kg, read-out: Blood concentration Cmax): 2040 ng/mL
- AUC(0-t) [2, 5]: 4330 ng·h/mL
- half-life [2, 5]: 1.84 h
- half-life at 1 μM ([3]; dog liver microsomes 0.5 mg/mL, 1 μM compound, NADPH, read-out: Half-life period (T1/2 min) Dog): 15.3 h
- Half-life period and stability compared with Comparative Example 1 ([3]; dog liver microsomes, in words): longer half-life period and a higher stability
